PubChem BioAssay AID449767 (Vanderbilt High Throughput Screening Facility, 2010)
Active and inactive are the calls of the source. No rule for the calls is given here.

Target: Muscarinic acetylcholine receptor M4 (Rattus norvegicus) (UniProt P08485)
Assay: M4 PAM leftward shift of ACh curve – rM4 cells, calcium, ACh concentration-response fold shift (AID 449767)
Conditions: acetylcholine CRC fold-shift, at 30 µM, stronger effect = higher value

Sequence of Muscarinic acetylcholine receptor M4 (Rattus norvegicus) (P08485 whole entry, looked up): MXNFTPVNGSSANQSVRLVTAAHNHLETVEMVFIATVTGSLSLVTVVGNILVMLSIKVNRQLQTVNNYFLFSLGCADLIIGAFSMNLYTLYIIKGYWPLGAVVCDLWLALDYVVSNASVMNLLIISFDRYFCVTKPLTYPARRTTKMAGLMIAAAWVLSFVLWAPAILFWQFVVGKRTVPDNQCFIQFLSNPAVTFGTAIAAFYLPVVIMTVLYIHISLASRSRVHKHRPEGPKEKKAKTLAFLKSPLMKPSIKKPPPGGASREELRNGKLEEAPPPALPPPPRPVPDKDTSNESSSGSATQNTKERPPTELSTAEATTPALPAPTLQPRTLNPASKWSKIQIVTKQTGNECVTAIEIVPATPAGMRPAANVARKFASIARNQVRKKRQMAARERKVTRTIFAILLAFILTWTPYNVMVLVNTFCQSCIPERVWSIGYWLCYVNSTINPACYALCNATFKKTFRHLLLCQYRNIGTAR

Row | fold shift | SMILES
1 | 4 | COc1ccc(CNC(=O)c2sc3nc(OCc4ccccn4)cc(C)c3c2N)cc1
2 | 40 | Cc1cc(C)c2c(N)c(C(=O)NCc3ccc4c(c3)OCO4)sc2n1
3 | 16 | Cc1cc(C)c2c(N)c(C(=O)NCc3ccccc3F)sc2n1
4 | 40 | Cc1cc(OCCN2CCOCC2)nc2sc(C(=O)NC3COC3)c(N)c12
5 | 36 | Cc1cc(OCc2ccncc2)nc2sc(C(=O)NCc3cccc(F)c3F)c(N)c12
6 | 14 | Cc1cc(OCCCN(C)C)nc2sc(C(=O)NCc3cc(F)ccc3F)c(N)c12
7 | 7 | Cc1cc(OCCCN(C)C)nc2sc(C(=O)NC3COC3)c(N)c12
8 | 41 | Cc1cc(OCc2ccccn2)nc2sc(C(=O)NCc3cc(F)ccc3F)c(N)c12
9 | 62 | Cc1cc(OCCN2CCOCC2)nc2sc(C(=O)NC(C)(C)C)c(N)c12
10 | 25 | COc1ccc(CNC(=O)c2sc3nc(OCCN4CCCC4)cc(C)c3c2N)cc1
11 | 50 | COc1ccc(CNC(=O)c2sc3nc(OCc4ccncc4)cc(C)c3c2N)cc1
12 | 48 | Cc1cc(C)c2c(N)c(C(=O)NCc3ccc(Cl)cc3)sc2n1
13 | 26 | Cc1cc(C)c2c(N)c(C(=O)NCc3ccccc3)sc2n1
14 | 51 | Cc1cc(OCCN2CCOCC2)nc2sc(C(=O)Nc3ccccc3)c(N)c12
15 | 67 | COCCCNC(=O)c1sc2nc(OCCN3CCOCC3)cc(C)c2c1N
16 | 64 | Cc1cc(OCc2ccncc2)nc2sc(C(=O)NCc3cc(F)ccc3F)c(N)c12
17 | 9 | COc1ccc(CNC(=O)c2sc3nc(OCc4cccnc4)cc(C)c3c2N)cc1
18 | 37 | COc1ccc(CNC(=O)c2sc3nc(OCCN4CCOCC4)cc(C)c3c2N)cc1
19 | 18 | Cc1cc(C)c2c(N)c(C(=O)NCc3cccc(F)c3F)sc2n1
20 | 36 | Cc1cc(OCCN2CCOCC2)nc2sc(C(=O)NC(C)C)c(N)c12
21 | 28 | Cc1cc(OCc2ccccn2)nc2sc(C(=O)NCc3cccc(F)c3F)c(N)c12
22 | < 1 (inactive) | COc1ccc(CNC(=O)c2sc3nc(OCCCN(C)C)cc(C)c3c2N)cc1
23 | 42 | COc1ccc(CNC(=O)c2sc3nc(C)cc(C)c3c2N)cc1
